Experimental data published in ChEMBL document CHEMBL4831486, “Design, synthesis and biological evaluation of pleuromutilin-Schiff base hybrids as potent anti-MRSA agents in vitro and in vivo” (Eur J Med Chem, 2021).
In brackets after ≈: the same amount, converted by molar mass.

Assays:
[1] = system: Staphylococcus aureus; experiment: Antibacterial activity against Methycillin-resistant Staphylococcus aureus ATCC 43300 assessed as inhibition of bacterial growth measured after 24 hrs by broth dilution method; format: functional
[2] = system: Staphylococcus aureus; experiment: Antibacterial activity against Staphylococcus aureus ATCC 29213 assessed as inhibition of bacterial growth measured after 24 hrs by broth dilution method; format: functional
[3] = system: Staphylococcus aureus; experiment: Antibacterial activity against Staphylococcus aureus AD3 assessed as inhibition of bacterial growth measured after 24 hrs by broth dilution method; format: functional
[4] = system: Staphylococcus aureus; experiment: Antibacterial activity against Staphylococcus aureus 144 assessed as inhibition of bacterial growth measured after 24 hrs by broth dilution method; format: functional
[5] = system: Escherichia coli; experiment: Antibacterial activity against Escherichia coli ATCC 25922 assessed as inhibition of bacterial growth measured after 24 hrs by broth dilution method; format: functional
[6] = system: Staphylococcus aureus; experiment: Bactericidal activity against Methycillin-resistant Staphylococcus aureus ATCC 43300 assessed as inhibition of bacterial growth measured after 96 hrs by broth dilution method; format: functional
[7] = system: Staphylococcus aureus; experiment: Bactericidal activity against Staphylococcus aureus ATCC 29213 assessed as inhibition of bacterial growth measured after 96 hrs by broth dilution method; format: functional
[8] = system: Staphylococcus aureus; experiment: Bactericidal activity against Staphylococcus aureus AD3 assessed as inhibition of bacterial growth measured after 96 hrs by broth dilution method; format: functional
[9] = system: Staphylococcus aureus; experiment: Bactericidal activity against Staphylococcus aureus 144 assessed as inhibition of bacterial growth measured after 96 hrs by broth dilution method; format: functional
[10] = system: Escherichia coli; experiment: Bactericidal activity against Escherichia coli ATCC 25922 assessed as inhibition of bacterial growth measured after 96 hrs by broth dilution method; format: functional
[11] = system: RAW264.7; experiment: Cytotoxicity against mouse RAW264.7 cells assessed as reduced cell viability at 4 ug/ml measured after 16 hrs by MTT assay; format: cell-based; details: raw264.7, 16 h, dose 4 µg/ml
[12] = system: HepG2; experiment: Cytotoxicity against human HepG2 cells assessed as reduced cell viability at 4 ug/ml measured after 16 hrs by MTT assay; format: cell-based; details: hepg2, 16 h, dose 4 µg/ml

| Compound | MIC [1] [µg/mL] | MIC [2] [µg/mL] | MIC [3] [µg/mL] | MIC [4] [µg/mL] | MIC [5] [µg/mL] | MBC [6] [µg/mL] | MBC [7] [µg/mL] | MBC [8] [µg/mL] | MBC [9] [µg/mL] | MBC [10] [µg/mL] | Activity [11] | Activity [12] |
| --- | --- | --- | --- | --- | --- | --- | --- | --- | --- | --- | --- | --- |
| C=C[C@]1(C)C[C@@H](OC(=O)CSc2nnc(C)n2/N=C/c2cccc(C(F)(F)F)c2)[C@]2(C)[C@H](C)CC[C@]3(CCC(=O)[C@H]32)[C@@H](C)[C@@H]1O | 2 (≈ 3.09 µM) | 2 (≈ 3.09 µM) | 2 (≈ 3.09 µM) | 4 (≈ 6.18 µM) | > 64 | 4 (≈ 6.18 µM) | 4 (≈ 6.18 µM) | 4 (≈ 6.18 µM) | 4 (≈ 6.18 µM) | > 64 | Non-Toxic | Non-Toxic |
| C=C[C@]1(C)C[C@@H](OC(=O)CSc2nnc(C)n2/N=C/c2ccc(C#N)cc2)[C@]2(C)[C@H](C)CC[C@]3(CCC(=O)[C@H]32)[C@@H](C)[C@@H]1O | 1 (≈ 1.66 µM) | 1 (≈ 1.66 µM) | 2 (≈ 3.31 µM) | 2 (≈ 3.31 µM) | > 64 | 4 (≈ 6.62 µM) | 4 (≈ 6.62 µM) | 4 (≈ 6.62 µM) | 4 (≈ 6.62 µM) | > 64 | Non-Toxic | Non-Toxic |
| C=C[C@]1(C)C[C@@H](OC(=O)CSc2nnc(C)n2/N=C/c2ccccc2Cl)[C@]2(C)[C@H](C)CC[C@]3(CCC(=O)[C@H]32)[C@@H](C)[C@@H]1O | 1 (≈ 1.63 µM) | 1 (≈ 1.63 µM) | 1 (≈ 1.63 µM) | 2 (≈ 3.26 µM) | > 64 | 2 (≈ 3.26 µM) | 2 (≈ 3.26 µM) | 4 (≈ 6.52 µM) | 4 (≈ 6.52 µM) | > 64 | Non-Toxic | Non-Toxic |
| C=C[C@]1(C)C[C@@H](OC(=O)CSc2nnc(C)n2/N=C/c2ccccc2[N+](=O)[O-])[C@]2(C)[C@H](C)CC[C@]3(CCC(=O)[C@H]32)[C@@H](C)[C@@H]1O | 0.5 (≈ 0.802 µM) | 1 (≈ 1.6 µM) | 2 (≈ 3.21 µM) | 2 (≈ 3.21 µM) | > 64 | 1 (≈ 1.6 µM) | 4 (≈ 6.41 µM) | 8 (≈ 12.8 µM) | 8 (≈ 12.8 µM) | > 64 | Non-Toxic | Non-Toxic |
| C=C[C@]1(C)C[C@@H](OC(=O)CSc2nnc(C)n2/N=C/c2ccccc2O)[C@]2(C)[C@H](C)CC[C@]3(CCC(=O)[C@H]32)[C@@H](C)[C@@H]1O | 0.5 (≈ 0.841 µM) | 1 (≈ 1.68 µM) | 1 (≈ 1.68 µM) | 2 (≈ 3.36 µM) | > 64 | 1 (≈ 1.68 µM) | 2 (≈ 3.36 µM) | 4 (≈ 6.73 µM) | 4 (≈ 6.73 µM) | > 64 | Non-Toxic | Non-Toxic |
| C=C[C@]1(C)C[C@@H](OC(=O)CSc2nnc(C)n2/N=C/c2ccc(C(F)(F)F)cc2)[C@]2(C)[C@H](C)CC[C@]3(CCC(=O)[C@H]32)[C@@H](C)[C@@H]1O | 2 (≈ 3.09 µM) | 2 (≈ 3.09 µM) | 2 (≈ 3.09 µM) | 4 (≈ 6.18 µM) | > 64 | 4 (≈ 6.18 µM) | 4 (≈ 6.18 µM) | 8 (≈ 12.4 µM) | 8 (≈ 12.4 µM) | > 64 | Non-Toxic | Non-Toxic |
| C=C[C@]1(C)C[C@@H](OC(=O)CSc2nnc(C)n2/N=C/c2cccc(C#N)c2)[C@]2(C)[C@H](C)CC[C@]3(CCC(=O)[C@H]32)[C@@H](C)[C@@H]1O | 1 (≈ 1.66 µM) | 1 (≈ 1.66 µM) | 2 (≈ 3.31 µM) | 2 (≈ 3.31 µM) | > 64 | 2 (≈ 3.31 µM) | 4 (≈ 6.62 µM) | 8 (≈ 13.2 µM) | 4 (≈ 6.62 µM) | > 64 | Non-Toxic | Non-Toxic |
| C=C[C@]1(C)C[C@@H](OC(=O)CSc2nnc(C)n2/N=C/c2ccc(F)cc2)[C@]2(C)[C@H](C)CC[C@]3(CCC(=O)[C@H]32)[C@@H](C)[C@@H]1O | 1 (≈ 1.68 µM) | 1 (≈ 1.68 µM) | 1 (≈ 1.68 µM) | 2 (≈ 3.35 µM) | > 64 | 2 (≈ 3.35 µM) | 4 (≈ 6.7 µM) | 4 (≈ 6.7 µM) | 4 (≈ 6.7 µM) | > 64 | Non-Toxic | Non-Toxic |
| C=C[C@]1(C)C[C@@H](OC(=O)CSc2nnc(C)n2/N=C/c2cccc(C)c2)[C@]2(C)[C@H](C)CC[C@]3(CCC(=O)[C@H]32)[C@@H](C)[C@@H]1O | 1 (≈ 1.69 µM) | 1 (≈ 1.69 µM) | 1 (≈ 1.69 µM) | 2 (≈ 3.37 µM) | > 64 | 2 (≈ 3.37 µM) | 2 (≈ 3.37 µM) | 4 (≈ 6.75 µM) | 4 (≈ 6.75 µM) | > 64 | Non-Toxic | Non-Toxic |
